Laboratory results: patent publication US8461184B2, “Sulphur containing pyrazole derivatives as selective cannabinoid CB1 receptor antagonists” (Solvay Pharmaceuticals B.V., priority 2006, dated 2013)
Read-outs that look alike come from different tables or passages of the source.

Tests used:
[1] = target: T1, human cannabinoid CB1 receptor (Homo sapiens, UniProt P21554); test: In vitro affinity for human cannabinoid-CB1 receptors ([3H]CP-55,940 radioligand, CHO cell membranes); type: binding; conditions: for CB1/CB2 ratio: CB1/CB2 receptor selectivity ratio from hCB1 and hCB2 Ki; for Ki: human CB1 receptor in CHO cell membranes, [3H]CP-55,940, mean of at least three independent experiments, read-out: hCB1 Ki
T1 construct: expressed in transfected cells; host or cells: Chinese hamster ovary (CHO) cells, membrane preparation
T1 sequence (P21554 whole entry): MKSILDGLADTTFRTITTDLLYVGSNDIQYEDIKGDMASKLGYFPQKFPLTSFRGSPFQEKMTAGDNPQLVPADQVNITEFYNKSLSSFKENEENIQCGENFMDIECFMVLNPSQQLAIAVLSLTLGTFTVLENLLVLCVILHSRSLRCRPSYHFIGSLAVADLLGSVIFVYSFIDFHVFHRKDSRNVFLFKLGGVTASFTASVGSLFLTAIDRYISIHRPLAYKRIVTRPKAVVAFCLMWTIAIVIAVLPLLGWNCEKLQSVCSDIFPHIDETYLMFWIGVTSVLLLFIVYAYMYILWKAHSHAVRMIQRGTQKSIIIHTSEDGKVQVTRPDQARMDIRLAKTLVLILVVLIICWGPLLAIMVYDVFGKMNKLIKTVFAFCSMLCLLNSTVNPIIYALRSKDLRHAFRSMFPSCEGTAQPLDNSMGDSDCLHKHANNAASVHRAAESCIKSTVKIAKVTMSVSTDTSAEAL
Procedure: In vitro affinity for human cannabinoid-CB1 receptors.
(§1) The affinity of the compounds of the invention for cannabinoid CB1 receptors can be determined using membrane preparations of Chinese hamster ovary (CHO) cells in which the human cannabinoid CB1 receptor is stably transfected in conjunction with [^3H]CP-55,940 as radioligand. After incubation of a freshly prepared cell membrane preparation with the [^3H]-ligand, with or without addition of compounds of the invention, separation of bound and free ligand is performed by filtration over glassfiber filters. Radioactivity on the filter is measured by liquid scintillation counting.

[2] = target: T2, human cannabinoid CB2 receptor (Homo sapiens, UniProt P34972); test: In vitro affinity for human cannabinoid-CB2 receptors ([3H]CP-55,940 radioligand, CHO cell membranes); type: binding; conditions: mean of at least three independent experiments, read-out: hCB2 Ki
T2 construct: expressed in transfected cells; host or cells: Chinese hamster ovary (CHO) cells, membrane preparation
T2 sequence (P34972 whole entry): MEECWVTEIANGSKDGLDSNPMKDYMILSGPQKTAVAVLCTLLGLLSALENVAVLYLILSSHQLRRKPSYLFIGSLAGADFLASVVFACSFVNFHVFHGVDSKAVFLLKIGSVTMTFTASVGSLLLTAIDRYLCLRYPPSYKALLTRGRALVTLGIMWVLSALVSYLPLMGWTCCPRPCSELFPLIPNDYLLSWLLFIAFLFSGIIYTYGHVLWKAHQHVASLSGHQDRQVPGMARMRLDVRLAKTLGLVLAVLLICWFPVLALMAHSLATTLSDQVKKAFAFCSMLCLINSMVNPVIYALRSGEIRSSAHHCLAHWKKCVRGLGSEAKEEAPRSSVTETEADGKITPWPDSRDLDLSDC
Procedure: In vitro affinity for human cannabinoid-CB2 receptors.
as §1, with “cannabinoid CB2” for “cannabinoid CB1”, “filter was” for “filter is”

CB1 receptor = target: T3, CB1 receptor (Rattus norvegicus, UniProt P20272); test: CP-55,940 induced hypotension in the rat; type: in vivo; conditions: read-out: Blood pressure (rat) ED50
T3 construct: from tissue; host or cells: whole animal: male normotensive rats (Harlan)
T3 sequence (P20272 whole entry): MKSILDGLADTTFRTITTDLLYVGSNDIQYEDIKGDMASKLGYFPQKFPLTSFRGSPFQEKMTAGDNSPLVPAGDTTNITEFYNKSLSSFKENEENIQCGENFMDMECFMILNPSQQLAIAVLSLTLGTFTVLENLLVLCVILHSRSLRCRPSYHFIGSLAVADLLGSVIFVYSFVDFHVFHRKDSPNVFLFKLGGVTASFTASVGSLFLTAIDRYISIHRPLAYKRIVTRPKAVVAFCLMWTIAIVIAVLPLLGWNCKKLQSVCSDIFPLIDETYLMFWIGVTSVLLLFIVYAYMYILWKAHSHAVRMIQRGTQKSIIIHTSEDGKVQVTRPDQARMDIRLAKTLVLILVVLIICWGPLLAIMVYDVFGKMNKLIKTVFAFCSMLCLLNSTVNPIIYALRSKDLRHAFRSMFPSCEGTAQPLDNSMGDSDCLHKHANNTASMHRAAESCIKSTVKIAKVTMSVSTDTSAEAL
Procedure: Blood pressure was measured, via a cannula inserted into the left carotid artery, by means of a Spectramed DTX-plus pressure transducer (Spectramed B. V., Bilthoven, The Netherlands). […] Heart rate was derived from the pulsatile pressure signal. […] The injection volume was 10 ml/kg.

[3] = p.o., antagonism of hypotension induced by CP-55,940 (0.1 mg/kg i.v.), anaesthetized male normotensive rats

Structure (SMILES): CSc1c(C(=O)NN2CCCCC2)nn(-c2ccc(Cl)cc2Cl)c1-c1ccc(Cl)cc1 [Comp. 1, 5-(4-Chlorophenyl)-1-(2,4-dichlorophenyl)-4-methylsulfanyl-N-(piperidin-1-yl)-1H-pyrazole-3-carboxamide]
- CB1/CB2 ratio [1]: 67
- Ki [1]: 0.01 µM
- Ki [2]: 0.668 µM
- ED50 (CB1 receptor): 1.5 mg/kg
- melting point: 172.4 to 174.5 °C

Structure (SMILES): CSc1c(C(=O)NN2CCCC2)nn(-c2ccc(Cl)cc2Cl)c1-c1ccc(Cl)cc1 [Comp. 2, 5-(4-Chlorophenyl)-1-(2,4-dichlorophenyl)-4-methylsulfanyl-N-(pyrrolidin-1-yl)-1H-pyrazole-3-carboxamide]
- CB1/CB2 ratio [1]: >34
- Ki [1]: < 0.01 µM
- Ki [2]: 0.34 µM
- ED50 (CB1 receptor; [3]): 1.9 mg/kg

Structure (SMILES): CSc1c(C(=O)NN2CCCCCC2)nn(-c2ccc(Cl)cc2Cl)c1-c1ccc(Cl)cc1 [Comp. 3, 5-(4-Chlorophenyl)-1-(2,4-dichlorophenyl)-4-methylsulfanyl-N-(azepan-1-yl)-1H-pyrazole-3-carboxamide]
- CB1/CB2 ratio [1]: 25
- Ki [1]: 0.02 µM
- Ki [2]: 0.5 µM
- ED50 (CB1 receptor; [3]): 3.1 mg/kg
